Data published in article PMC7902330, “Pharmacokinetic study of traditional Japanese Kampo medicine shimotsuto used to treat gynecological diseases in rats” (Journal of Natural Medicines, 2021).
Like-named read-outs stand apart in the source and are kept apart here.

How the values were obtained:
[1] = Nontargeted LC–HRMS detection of ingredients in rat plasma after oral administration of each constituent crude drug; conditions: n = 2
Method: The rats were fasted for 16 h and then orally administered Angelicae Acutilobae Radix, Paeoniae Radix, Rehmanniae Radix, or Cnidii Rhizoma extract powder suspended in distilled water at a dosage of 1 g/10 mL/kg. […] The two sampling points (1 and 10 h) were set to extensively explore both fast- and slow-absorbing ingredients. The blood samples were centrifuged at 1700×g for 15 min at 4 °C to obtain plasma, and the plasma samples were stored at less than − 75 °C until LC–HRMS analysis.
Before LC–HRMS analysis, the plasma samples were deproteinized using methanol as follows: 100 µL of plasma sample was mixed with 700 µL of methanol and then vortexed for 2 min. After centrifugation at 7000×g for 5 min at 4 °C, the supernatant was collected and then dried using a centrifugal evaporator, dissolved the dried residue in 80 μL of the initial mobile phase of LC, and recentrifuged at 7000×g for 5 min at 4 °C. Finally, a 5 μL aliquot of the supernatant was injected into the LC–HRMS system and analyzed in both positive and negative ion modes.
We interfaced the Acquity Ultra-Performance Liquid Chromatography System (Waters) to a Xevo G2-XS quadrupole time-of-flight MS system (Waters) equipped with an electrospray ionization probe in sensitivity mode. All ions within m/z = 50–1000 were acquired by the MS^E method (data-independent acquisition). […] We created two acquisition functions with different collision energies: a low-energy function with 6 eV collision energy and a high-energy function with 15–40 eV collision energy. The mass spectrometer resolution was set at more than 20,000.

[2] = target: T1, human TRPA1 (Homo sapiens, UniProt O75762); test: Ca2+ influx assay for TRP channel agonistic activity in T-REx-293 cells; assay type: cell-based; conditions: for activation at 10 µM: T-REx-293, 10 µmol/L test ingredient, positive control 20 µmol/L allyl isothiocyanate, read-out: % Activation compared to positive control, TRPA1; for Activation of TRPA1 (in words): TRP stable expression cell lines
T1 construct: The full length of each of human transient receptor potential ankyrin 1 (TRPA1); expressed in transfected cells
Text: (§1) The full length of each of human transient receptor potential ankyrin 1 (TRPA1), transient receptor potential cation channel subfamily V member 1 (TRPV1), transient receptor potential cation channel subfamily V member 4 (TRPV4), and transient receptor potential cation channel subfamily M member 8 (TRPM8) coding region was introduced into a pcDNA4/TO vector (Thermo Fisher Scientific, Waltham, MA, USA) and transfected into T-REx-293 cells (Thermo Fisher Scientific) to obtain stable cell lines expressing human TRPA1, TRPV1, TRPV4, and TRPM8. Next, the cells were cultured in Dulbecco’s Modified Eagle Medium containing 10% fetal bovine serum (FBS), 4 mM L-glutamine, and penicillin/streptomycin.
(§2) First, cells were suspended in culture medium with 1 µg/mL of tetracycline and seeded on a poly-D-lysine-coated 96-well plate at a density of 2.5 × 10^4 cells/well overnight. Next, the cells were used for Ca^2+ influx assay, as described previously with minor modifications, using a FLIPR Calcium 5 Assay Kit (Molecular Devices, San Jose, CA, USA). Briefly, cells were incubated in 80 µL of a Ca^2+-chelating dye dissolved in assay buffer at pH 7.4 (Hanks’ Balanced Salt Solution containing 20 mmol/L of 4-(2-hydroxyethyl)-1-piperazineethanesulfonic acid [HEPES]) for 30 min at room temperature. Next, the plates were assayed in a FlexStation 3 microplate reader (Molecular Devices). The fluorescence intensity was traced entirely for 80 s, and the fluorescence baseline was measured 20 s before application of 20 µL of the test compound (final concentration = 10 µmol/L). The response was expressed as percentage activation as follows:
(§3) Relative fluorescence units (RFU) (% activation) = ([RFUmax − RFUbaseline]/RFUbaseline) × 100
(§4) The activity of each test compound against TRPA1, TRPV1, TRPV4, and TRPM8 was represented as the relative enhancement of the Ca^2+ influx of each positive control as follows: 20 µmol/L of allyl isothiocyanate (TRPA1 agonist), 2 µmol/L of capsaicin (TRPV1 agonist), 4 µmol/L of GSK1016790A (TRPV4 agonist), and 20 µmol/L of icilin (TRPM8 agonist). The dose–response curve was fitted to the sigmoidal dose–response equation (Top: maximum response of each compound), and EC50 was calculated using GraphPad prism 7 software (GraphPad, San Diego, CA, USA).
(§5) Calcium ion influx into TRPA1-, TRPV1-, TRPV4-, or TRPM8-expressing T-REx-293 cells was measured to evaluate the agonistic effect of shimotsuto ingredients on TRP channels. The action of 10 µmol/L of each test ingredient was represented as the relative enhancement of the Ca^2+ influx of each positive control, indicated as follows: 20 µmol/L each of allyl isothiocyanate (TRPA1 agonist), 2 µmol/L capsaicin (TRPV1 agonist), 4 µmol/L GSK1016790A (TRPV4 agonist), and 20 µmol/L icilin (TRPM8 agonist). Dose–response tests of shimotsuto ingredients against TRPA1 were performed to calculate EC50.

[3] = target: T2, human TRPV4 (Homo sapiens, UniProt Q9HBA0); test: as above; assay type: cell-based; conditions: 10 µmol/L test ingredient, positive control 4 µmol/L GSK1016790A, read-out: % Activation compared to positive control, TRPV4
T2 construct: The full length of each of human transient receptor potential ankyrin 1 (TRPA1); expressed in transfected cells
Text: as §1, §2, §3, §4, §5

[4] = target: T3, human TRPM8 (Homo sapiens, UniProt Q7Z2W7); test: as above; assay type: cell-based; conditions: 10 µmol/L test ingredient, positive control 20 µmol/L icilin, read-out: % Activation compared to positive control, TRPM8
T3 construct: The full length of each of human transient receptor potential ankyrin 1 (TRPA1); expressed in transfected cells
Text: as §1, §2, §3, §4, §5

[5] = target: T4, human TRPV1 (Homo sapiens, UniProt Q8NER1); test: as above; assay type: cell-based; conditions: 10 µmol/L test ingredient, positive control 2 µmol/L capsaicin, read-out: % Activation compared to positive control, TRPV1
T4 construct: The full length of each of human transient receptor potential ankyrin 1 (TRPA1), transient receptor potential cation channel subfamily V member 1 (TRPV1); expressed in transfected cells
Text: as §1, §2, §3, §4, §5

[6] = Pharmacokinetics of ingredients in rat plasma after oral administration of shimotsuto (targeted LC–MS/MS); assay type: in vivo; conditions: in vivo
Text: The plasma levels of nine ingredients were quantified using quantitative (targeted) analysis. Among them, seven ingredients (catalpol, paeoniflorin, albiflorin, senkyunolide A, butylphthalide, ferulic acid, and ligustilide) are candidate active ingredients in shimotsuto (Table 1). Two ingredients (bergapten and 8-debenzoylpaeoniflorin) are shimotsuto ingredients which were detected and identified in shimotsuto-treated rat plasma using nontargeted LC–HRMS analysis. The nine ingredients were quantified by collecting plasma samples at 0–24 h after shimotsuto administration, pretreating with the following procedures, and then analyzing by targeted LC–MS/MS using selected reaction-monitoring mode. The LC–MS/MS system was composed of a triple quadruple MS (TripleQuad6500; SCIEX, Framingham, MA, USA) and an Agilent 1290 Infinity LC system (Agilent Technologies, Santa Clara, CA, USA). For highly sensitive and selective quantitative (targeted) analysis of each compound, we preliminarily examined optimal pretreatment and analytical LC–MS/MS methods (e.g., MS parameters and LC conditions).
For quantification of catalpol, paeoniflorin, albiflorin, ferulic acid, and senkyunolide A in plasma, 100 µL of plasma sample was mixed with 20 µL of methanol (or working solution) and 20 µL of internal standard (niflumic acid or swertiamarin) and pretreated by deproteinization using 500 µL of acetonitrile. […] Finally, the dried residue was dissolved in 60 µL of the specific HPLC mobile phase used for analysis and then a 10 μL aliquot was injected into the LC–MS/MS system.
For quantification of ligustilide and butylphthalide in plasma, 200 µL of plasma sample was mixed with 40 µL of methanol (or working solution) and 40 µL of internal standard (imperatorin) and centrifuged at 15000×g for 10 min at 4 °C, the whole volume of supernatant was collected and subsequently pretreated by solid-phase extraction using Oasis HLB Extraction Cartridge (Waters, Milford, MA, USA). The acetonitrile elutes were collected and then dried under a steam of nitrogen gas. Finally, the dried residue was dissolved in 70 µL of the specific HPLC mobile phase and injected 20 µL into the LC–MS/MS system.
For quantification of bergapten in plasma, 100 µL of plasma sample was mixed with 20 µL of methanol (or working solution) and 20 µL of internal standard (niflumic acid) and pretreated by solid-phase extraction using an Oasis HLB 96-well µElution plate. Next, the mixied elutes of acetonitrile and isopropyl alcohol (1:1, v/v) were collected and then dried under a steam of nitrogen gas. Finally, the dried residue was dissolved in 60 µL of the specific HPLC mobile phase and injected 10 µL into the LC–MS/MS system.
For quantification of 8-debenzoylpaeoniflorin in plasma, 100 µL of plasma sample was mixed with 20 µL of methanol (or working solution) and 20 µL of internal standard (niflumic acid) and pretreated by liquid–liquid extraction using 500 µL of ethyl acetate. […] The dried residue was dissolved in 60 µL of the specific HPLC mobile phase and injected 10 µL into the LC–MS/MS system.
In addition, pharmacokinetic parameters of the shimotsuto ingredients detected in the plasma, such as the maximum concentration (Cmax) and area under the plasma level–time curve (AUC0−last), were calculated by noncompartmental moment analysis using Phoenix WinNonlin software (Certara L.P., St. Louis, MO, USA).

[7] = cited from earlier work
[8] = oral Angelicae Acutilobae Radix 1 g/kg

T1 sequence (O75762 whole entry): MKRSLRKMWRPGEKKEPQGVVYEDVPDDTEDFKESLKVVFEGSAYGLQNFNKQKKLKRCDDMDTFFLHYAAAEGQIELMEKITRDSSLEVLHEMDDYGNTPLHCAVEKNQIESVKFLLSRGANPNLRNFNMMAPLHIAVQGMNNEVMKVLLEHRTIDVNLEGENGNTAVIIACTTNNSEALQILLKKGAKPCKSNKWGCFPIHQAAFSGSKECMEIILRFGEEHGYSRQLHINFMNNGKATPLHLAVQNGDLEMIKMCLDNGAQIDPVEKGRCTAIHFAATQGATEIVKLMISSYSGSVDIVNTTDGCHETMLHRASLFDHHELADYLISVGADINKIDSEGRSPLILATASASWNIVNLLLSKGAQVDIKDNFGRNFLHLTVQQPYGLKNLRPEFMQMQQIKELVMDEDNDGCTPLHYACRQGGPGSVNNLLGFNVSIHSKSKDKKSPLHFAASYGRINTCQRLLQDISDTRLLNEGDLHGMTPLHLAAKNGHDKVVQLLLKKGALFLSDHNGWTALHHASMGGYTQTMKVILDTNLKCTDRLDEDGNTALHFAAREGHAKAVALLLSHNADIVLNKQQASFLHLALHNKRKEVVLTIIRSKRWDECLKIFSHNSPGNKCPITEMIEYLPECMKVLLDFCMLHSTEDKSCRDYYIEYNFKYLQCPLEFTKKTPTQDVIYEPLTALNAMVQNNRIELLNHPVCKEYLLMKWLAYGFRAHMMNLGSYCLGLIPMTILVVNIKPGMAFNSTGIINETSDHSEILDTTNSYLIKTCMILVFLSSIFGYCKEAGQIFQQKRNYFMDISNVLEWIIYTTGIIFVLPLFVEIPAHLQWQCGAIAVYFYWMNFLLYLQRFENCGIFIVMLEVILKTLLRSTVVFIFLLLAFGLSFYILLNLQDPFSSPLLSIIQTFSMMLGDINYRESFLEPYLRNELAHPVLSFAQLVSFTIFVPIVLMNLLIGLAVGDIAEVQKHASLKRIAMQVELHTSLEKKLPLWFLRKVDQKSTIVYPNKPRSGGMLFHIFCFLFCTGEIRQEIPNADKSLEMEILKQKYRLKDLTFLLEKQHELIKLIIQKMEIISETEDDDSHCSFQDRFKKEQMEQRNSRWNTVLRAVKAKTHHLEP
T3 sequence (Q7Z2W7 whole entry): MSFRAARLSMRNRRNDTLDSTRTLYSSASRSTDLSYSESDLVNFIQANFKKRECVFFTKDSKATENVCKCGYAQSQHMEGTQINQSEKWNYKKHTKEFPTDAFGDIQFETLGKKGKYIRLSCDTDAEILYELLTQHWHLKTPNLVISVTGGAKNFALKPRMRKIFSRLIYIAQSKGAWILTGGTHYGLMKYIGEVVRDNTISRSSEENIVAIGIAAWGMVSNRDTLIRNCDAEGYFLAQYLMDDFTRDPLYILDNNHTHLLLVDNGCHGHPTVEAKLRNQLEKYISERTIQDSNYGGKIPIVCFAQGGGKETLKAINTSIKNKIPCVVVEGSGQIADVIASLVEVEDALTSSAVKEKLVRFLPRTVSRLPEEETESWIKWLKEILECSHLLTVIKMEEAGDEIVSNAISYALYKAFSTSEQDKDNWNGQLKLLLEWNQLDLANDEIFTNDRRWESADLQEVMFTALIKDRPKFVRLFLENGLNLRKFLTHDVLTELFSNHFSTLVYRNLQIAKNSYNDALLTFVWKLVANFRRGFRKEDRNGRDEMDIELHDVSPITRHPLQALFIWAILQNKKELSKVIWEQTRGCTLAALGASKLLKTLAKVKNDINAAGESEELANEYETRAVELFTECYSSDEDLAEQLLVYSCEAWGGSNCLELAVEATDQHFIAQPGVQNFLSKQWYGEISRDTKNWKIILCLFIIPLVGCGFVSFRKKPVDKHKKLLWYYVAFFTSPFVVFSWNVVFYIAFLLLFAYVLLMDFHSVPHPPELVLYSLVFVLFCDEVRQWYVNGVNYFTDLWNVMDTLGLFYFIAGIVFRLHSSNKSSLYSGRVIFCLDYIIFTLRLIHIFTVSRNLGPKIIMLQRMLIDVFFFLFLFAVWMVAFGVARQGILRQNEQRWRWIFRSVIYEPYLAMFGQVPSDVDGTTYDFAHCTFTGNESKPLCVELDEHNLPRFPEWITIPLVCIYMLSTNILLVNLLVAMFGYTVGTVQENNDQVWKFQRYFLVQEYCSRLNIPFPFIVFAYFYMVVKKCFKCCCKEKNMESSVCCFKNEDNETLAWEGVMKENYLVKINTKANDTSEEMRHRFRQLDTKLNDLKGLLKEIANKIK
T2 sequence (Q9HBA0 whole entry): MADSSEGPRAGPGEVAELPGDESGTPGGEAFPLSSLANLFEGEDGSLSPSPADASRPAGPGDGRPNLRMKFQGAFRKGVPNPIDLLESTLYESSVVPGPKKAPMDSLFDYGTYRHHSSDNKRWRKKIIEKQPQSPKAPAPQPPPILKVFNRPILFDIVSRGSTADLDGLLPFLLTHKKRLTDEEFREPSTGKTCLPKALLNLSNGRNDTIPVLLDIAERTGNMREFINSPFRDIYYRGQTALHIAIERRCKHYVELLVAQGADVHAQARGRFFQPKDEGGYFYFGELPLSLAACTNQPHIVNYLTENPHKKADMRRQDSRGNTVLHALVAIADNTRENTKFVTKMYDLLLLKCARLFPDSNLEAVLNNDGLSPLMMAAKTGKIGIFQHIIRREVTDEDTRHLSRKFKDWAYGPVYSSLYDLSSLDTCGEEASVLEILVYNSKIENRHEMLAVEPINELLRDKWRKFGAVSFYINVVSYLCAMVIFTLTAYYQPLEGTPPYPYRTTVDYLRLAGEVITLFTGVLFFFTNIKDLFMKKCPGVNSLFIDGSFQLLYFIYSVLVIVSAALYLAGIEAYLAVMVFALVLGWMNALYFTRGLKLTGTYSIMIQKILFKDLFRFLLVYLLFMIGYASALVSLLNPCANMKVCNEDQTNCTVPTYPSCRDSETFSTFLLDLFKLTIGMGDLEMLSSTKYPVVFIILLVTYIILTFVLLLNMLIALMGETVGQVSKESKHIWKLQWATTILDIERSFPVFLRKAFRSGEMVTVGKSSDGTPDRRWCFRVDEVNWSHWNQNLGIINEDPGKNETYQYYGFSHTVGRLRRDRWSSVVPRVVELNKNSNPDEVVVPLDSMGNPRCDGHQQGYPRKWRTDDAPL
T4 sequence (Q8NER1 whole entry): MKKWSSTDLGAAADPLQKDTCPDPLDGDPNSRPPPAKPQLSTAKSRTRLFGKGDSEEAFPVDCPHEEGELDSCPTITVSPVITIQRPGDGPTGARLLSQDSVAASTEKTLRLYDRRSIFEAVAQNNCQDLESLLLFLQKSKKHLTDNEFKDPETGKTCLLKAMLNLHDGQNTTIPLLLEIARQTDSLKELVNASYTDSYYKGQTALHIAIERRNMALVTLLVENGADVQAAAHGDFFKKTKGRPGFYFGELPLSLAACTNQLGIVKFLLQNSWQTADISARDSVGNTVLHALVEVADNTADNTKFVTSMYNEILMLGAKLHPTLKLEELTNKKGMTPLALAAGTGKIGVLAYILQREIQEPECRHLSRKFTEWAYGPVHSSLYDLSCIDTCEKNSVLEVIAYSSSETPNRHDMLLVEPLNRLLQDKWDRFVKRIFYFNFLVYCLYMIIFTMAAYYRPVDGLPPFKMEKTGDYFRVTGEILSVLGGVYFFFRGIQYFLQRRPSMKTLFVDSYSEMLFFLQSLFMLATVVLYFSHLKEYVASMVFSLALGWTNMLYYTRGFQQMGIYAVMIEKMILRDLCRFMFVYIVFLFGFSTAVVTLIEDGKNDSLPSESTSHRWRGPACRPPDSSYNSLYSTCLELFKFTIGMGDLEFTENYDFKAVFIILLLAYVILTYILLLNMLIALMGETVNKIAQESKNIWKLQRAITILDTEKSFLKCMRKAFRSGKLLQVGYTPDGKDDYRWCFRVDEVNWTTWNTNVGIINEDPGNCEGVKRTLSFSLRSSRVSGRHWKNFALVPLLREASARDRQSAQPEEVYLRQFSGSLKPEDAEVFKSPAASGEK

Compound: CCCC=C1OC(=O)c2ccccc21 [3-Butylidenephthalide]
- Plasma collected 1 h postadministration (detection) ([1]; oral Cnidii Rhizoma 1 g/kg): ++ (The number of + signs represent the sample number in which the ingredient was detected in the plasma after administration of each constituent crude drug of shimotsuto (n = 2 per sampling time per crude drug))
- Plasma collected 10 h postadministration (detection) ([1]; oral Cnidii Rhizoma 1 g/kg): Not detected

Compound: COc1cc(O)c2c(=O)cc(C)oc2c1 [Eugenin]
- Plasma collected 1 h postadministration (detection) ([1]; oral Cnidii Rhizoma 1 g/kg): ++ (The number of + signs represent the sample number in which the ingredient was detected in the plasma after administration of each constituent crude drug of shimotsuto (n = 2 per sampling time per crude drug))
- Plasma collected 10 h postadministration (detection) ([1]; oral Cnidii Rhizoma 1 g/kg): Not detected

Compound: COc1c2ccoc2cc2oc(=O)ccc12 [Bergapten]
- activation at 10 µM [2]: 3%
- activation at 10 µM [3]: 0%
- activation at 10 µM [4]: 0%
- activation at 10 µM [5]: 0%
- AUC(0-t) ([6]; rat plasma, oral shimotsuto 1 g/kg, from mean concentration (n = 3) per time point, read-out: AUC0−last): 0.0105 ng·h/mL
- Cmax ([6]; rat plasma, oral shimotsuto 1 g/kg, from mean concentration (n = 3) per time point, read-out: Cmax): 0.0837 ng/mL
- Tmax ([6]; rat plasma, oral shimotsuto 1 g/kg, from mean concentration (n = 3) per time point, read-out: tmax): 15 min
- Plasma collected 1 h postadministration (detection) [1, 8]: + (The number of + signs represent the sample number in which the ingredient was detected in the plasma after administration of each constituent crude drug of shimotsuto (n = 2 per sampling time per crude drug))
- Plasma collected 10 h postadministration (detection) [1, 8]: Not detected

Compound: COc1cc(/C=C/C(=O)O)ccc1O [Ferulic acid]
- Pharmacological action related to improvement of blood and the circulatory system ([7]; ref 14): Vasodilation effect [14]
- activation at 10 µM [2]: 3%
- activation at 10 µM [3]: 0%
- activation at 10 µM [4]: 5%
- activation at 10 µM [5]: 0%
- AUC(0-t) ([6]; rat, po, 1 g/kg): 75 ng·h/mL
- Cmax ([6]; rat, po, 1 g/kg): 12.4 ng/mL
- Tmax ([6]; rat, po, 1 g/kg): 15 min

Compound: CCCC[C@@H]1OC(=O)C2=C1CCC=C2 [Senkyunolide A]
- Pharmacological action related to improvement of blood and the circulatory system ([7]; ref 8): Vasorelaxation
- Pharmacological action related to improvement of blood and the circulatory system ([7]; ref 13): vasorelaxation and increased blood flow effects
- EC50 [2]: 1000 nM
- activation at 10 µM [2]: 86%
- Activation of TRPA1 (in words) [2]: potently activated
- activation at 10 µM [3]: 0%
- activation at 10 µM [4]: -1%
- activation at 10 µM [5]: 1%
- AUC(0-t) ([6]; rat, po, 1 g/kg): 8.04 ng·h/mL
- Cmax ([6]; rat, po, 1 g/kg): 28.9 ng/mL
- Tmax ([6]; rat, po, 1 g/kg): 15 min

Compound: COc1cc(/C=C/COC(=O)/C=C/c2ccc(O)c(OC)c2)ccc1O [Coniferyl ferulate]
- Plasma collected 1 h postadministration (detection) ([1]; oral Cnidii Rhizoma 1 g/kg): ++ (The number of + signs represent the sample number in which the ingredient was detected in the plasma after administration of each constituent crude drug of shimotsuto (n = 2 per sampling time per crude drug))
- Plasma collected 10 h postadministration (detection) ([1]; oral Cnidii Rhizoma 1 g/kg): + (The number of + signs represent the sample number in which the ingredient was detected in the plasma after administration of each constituent crude drug of shimotsuto (n = 2 per sampling time per crude drug))

Compound: O.Oc1cc(O)c2c(c1)O[C@H](c1ccc(O)c(O)c1)[C@@H](O)C2 [Catechin]
- Plasma collected 1 h postadministration (detection) ([1]; oral Paeoniae Radix 1 g/kg): ++ (The number of + signs represent the sample number in which the ingredient was detected in the plasma after administration of each constituent crude drug of shimotsuto (n = 2 per sampling time per crude drug))
- Plasma collected 10 h postadministration (detection) ([1]; oral Paeoniae Radix 1 g/kg): Not detected

Compound: CCCCC1OC(=O)c2ccccc21 (stereo not shown) [Butylphthalide]
- Pharmacological action related to improvement of blood and the circulatory system ([7]; ref 9): Vasodilation
- Pharmacological action related to improvement of blood and the circulatory system ([7]; ref 13): vasorelaxation and increased blood flow effects
- activation at 10 µM [2]: 73%
- Activation of TRPA1 (in words) [2]: potently activated
- EC50 ([2]; dose–response test, Ca2+ influx, read-out: EC50 against TRPA1): 3200 nM
- activation at 10 µM [3]: 0%
- activation at 10 µM [4]: -1%
- activation at 10 µM [5]: -1%
- AUC(0-t) ([6]; rat, po, 1 g/kg): 4.12 ng·h/mL
- Cmax ([6]; rat, po, 1 g/kg): 13.7 ng/mL
- Tmax ([6]; rat, po, 1 g/kg): 30 min

Compound: CC12CC3(O)OC(O1)C1(CO)C3CC21OC1OC(CO)C(O)C(O)C1O (stereo not shown) [8-Debenzoylpaeoniflorin]
- activation at 10 µM [2]: 30%
- Activation of TRPA1 (in words) [2]: slightly activated
- activation at 10 µM [3]: 1%
- activation at 10 µM [4]: 2%
- activation at 10 µM [5]: 1%
- Cmax compared to paeoniflorin ([6]; rat): approximately tenfold
- AUC(0-t) ([6]; rat, po, 1 g/kg): 811 ng·h/mL
- Cmax ([6]; rat, po, 1 g/kg): 466 ng/mL
- Tmax ([6]; rat, po, 1 g/kg): 60 min
- Plasma collected 1 h postadministration (detection) ([1]; oral Paeoniae Radix 1 g/kg): ++ (The number of + signs represent the sample number in which the ingredient was detected in the plasma after administration of each constituent crude drug of shimotsuto (n = 2 per sampling time per crude drug))
- Plasma collected 10 h postadministration (detection) ([1]; oral Paeoniae Radix 1 g/kg): + (The number of + signs represent the sample number in which the ingredient was detected in the plasma after administration of each constituent crude drug of shimotsuto (n = 2 per sampling time per crude drug))
